Patent US8912218B2, “Alkylthiazol carbamate derivatives, preparation thereof and therapeutic use thereof” (Sanofi, priority 2008, dated 2014)

How the values were obtained:
male OF 1 mice = test: analgesia test: abdominal stretches induced by PBQ (phenylbenzoquinone); format: in vivo; settings: 30 mg/kg p.o. at 120 minutes, PBQ 2 mg/kg i.p.
Method: The in vivo activity of the compounds of the invention was evaluated in an analgesia test.
Accordingly, intraperitoneal (i.p.) administration of PBQ (phenylbenzoquinone, 2 mg/kg in a 0.9% sodium chloride solution containing 5% of ethanol) to male OF 1 mice weighing 25 to 30 g causes abdominal stretches, on average 30 twists or contractions during the period from 5 to 15 minutes after injection. The test compounds are administered orally (p.o.) or intraperitoneally (i.p.) in suspension in Tween 80 at 0.5%, 60 minutes or 120 minutes before the administration of PBQ.
For example, compounds 28 and 30 of the table reduce by 33% and 80%, respectively, the number of stretches induced by PBQ, at a dose of 30 mg/kg p.o. at 120 minutes.

[1] = biological target: T1, FAAH (Fatty Acid Amide Hydrolase) (Mus musculus, UniProt O08914); test: radioenzymatic assay of hydrolysis of anandamide [1-3H ethanolamine] by FAAH; format: biochemical; settings: mouse brain membrane homogenates; pre-incubation 20 minutes at 25° C.; anandamide final concentration 10 μM; read-out: IC50 (concentration inhibiting by 50% the control enzymatic activity of FAAH)
T1 construct: Membrane homogenates are prepared at the time of use by homogenizing the tissues; from tissue; host or cells: mouse brain (minus the cerebellum), membrane homogenate
T1 sequence (O08914 1-579): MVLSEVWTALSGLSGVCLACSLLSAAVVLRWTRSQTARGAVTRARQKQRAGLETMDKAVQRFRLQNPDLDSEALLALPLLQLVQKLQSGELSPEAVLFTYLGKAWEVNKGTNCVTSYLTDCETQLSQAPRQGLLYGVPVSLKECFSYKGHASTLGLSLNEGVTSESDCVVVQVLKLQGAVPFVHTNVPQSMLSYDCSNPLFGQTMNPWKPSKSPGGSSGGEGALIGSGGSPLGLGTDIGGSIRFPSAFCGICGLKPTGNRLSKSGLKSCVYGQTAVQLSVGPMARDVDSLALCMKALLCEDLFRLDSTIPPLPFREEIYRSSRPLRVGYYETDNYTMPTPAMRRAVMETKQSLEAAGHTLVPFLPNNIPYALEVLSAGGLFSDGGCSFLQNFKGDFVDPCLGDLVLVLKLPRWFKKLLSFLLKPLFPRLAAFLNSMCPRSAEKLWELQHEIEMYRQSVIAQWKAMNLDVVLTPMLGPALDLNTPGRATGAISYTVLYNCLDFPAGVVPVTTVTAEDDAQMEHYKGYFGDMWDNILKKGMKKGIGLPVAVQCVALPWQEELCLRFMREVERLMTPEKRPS
Method: The compounds of the invention were subjected to pharmacological tests allowing determination of their inhibitory effect on the enzyme FAAH (Fatty Acid Amide Hydrolase).
Accordingly, mouse brains (minus the cerebellum) are removed and stored at −80° C. Membrane homogenates are prepared at the time of use by homogenizing the tissues using a Precellys® apparatus in the reaction buffer (10 mM Tris-HCl pH=8, 150 mM NaCl and 1 mM ethylenediaminetetraacetic acid (EDTA)). The enzymatic reaction is conducted in 96-well Multiscreen filter plates, in a final volume of 70 μl. Reaction buffer supplemented with bovine serum albumin without fatty acids (BSA, 1 mg/ml) is used for the enzymatic reaction, the dilution of the compounds and of anandamide [1-^3H ethanolamine]. Added in succession to the wells are the reaction buffer containing the BSA (43 μl/well), the diluted test compounds at different concentrations (7 μl/well containing 1% DMSO) and the membrane preparation (10 μl/well or […] per assay). After the compounds have been pre-incubated with the enzyme at 25° C. for 20 minutes, the reaction is initiated by the addition of anandamide [1-^3H ethanolamine] […] The mixture is stirred for 10 minutes and then the aqueous phase containing the ethanolamine [1-^3H] is recovered by filtration under vacuum and counted by liquid scintillation.

Row | SMILES | melting point [°C] | IC50 [1] [nM] | reduction of the number of stretches induced by PBQ (male OF 1 mice) [%]
1 | O=C(NCCC1CCN(c2ccc(-c3ccc(F)cc3)cn2)CC1)OCc1nccs1 [Compound 28, Thiazol-2-ylmethyl 2-[5′-(4-fluorophenyl)-3,4,5,6-tetrahydro-2H-[1,2′]bipyridinyl-4-yl]-ethylcarbamate] | 131 to 133 | 3 | 33
2 | O=C(NCCC1CCN(c2ccc(-c3ccc(F)cc3)cn2)CC1)OCc1cscn1 [Compound 30, Thiazol-4-ylmethyl 2-[5′-(4-fluorophenyl)-3,4,5,6-tetrahydro-2H-[1,2′]bipyridinyl-4-yl]ethylcarbamate] | 130 to 132 | 7 | 80
3 | O=C(NCCC1CCN(c2ccc(-c3ccc(F)cc3)cn2)CC1)OCc1cncs1 [Compound 33, Thiazol-5-ylmethyl 2-[5′-(4-fluorophenyl)-3,4,5,6-tetrahydro-2H-[1,2′]bipyridinyl-4-yl]ethylcarbamate] | 100 to 102 | – | –

Continued, in another order:

Row | melting point [°C] | IC50 [1] [nM] | SMILES | reduction of the number of stretches induced by PBQ (male OF 1 mice) [%]
4 | 121 to 123 | – | O=C(NCCC1CCN(c2cccc(-c3ccc(F)cc3)n2)CC1)OC(c1nccs1)C(F)(F)F (racemic) [Compound 50, 2,2,2-Trifluoro-1-thiazol-2-ylethyl (+/−)-2-[6′-(4-fluorophenyl)-3,4,5,6-tetrahydro-2H-[1,2′]bipyridinyl-4-yl]ethylcarbamate] | –
5 | 114 to 116 | – | O=C(NCCC1CCN(c2ccc3cc(Cl)ccc3n2)CC1)OC(c1nccs1)C(F)(F)F (racemic) [Compound 106, 2,2,2-Trifluoro-1-thiazol-2-ylethyl (+/−)-2-[1-(6-chloroquinolin-2-yl)piperidin-4-yl]ethylcarbamate] | –
6 | 157 to 159 | – | CCOc1ccc(-c2ccc(N3CCC(CCNC(=O)OCc4nccs4)CC3)nc2)cc1 [Compound 38, Thiazol-2-ylmethyl 2-[5′-(4-ethoxyphenyl)-3,4,5,6-tetrahydro-2H-[1,2′]bipyridinyl-4-yl]ethylcarbamate] | –
7 | 100 to 102 | – | O=C(NCCC1CCN(c2ccc3cc(F)ccc3n2)CC1)OCc1cncs1 [Compound 117, Thiazol-5-ylmethyl 2-[1-(6-fluoroquinolin-2-yl)piperidin-4-yl]ethylcarbamate] | –
